Laboratory results published in US6656951B2, “8-aza-bicyclo[3.2.1]octan-3-ol derivatives of 2,3-dihydro-1,4-benzodioxan as 5-HT1A antagonists” (Wyeth, priority 2001, dated 2003).
Structures can show the parent of a compound that is named as a salt. Where two headings read alike, the source gives them in different places.

Columns and labels:
human 5-HT1A receptor = target: T1, human 5-HT1A receptor (Homo sapiens, UniProt P08908); test: HC 5-HT1A affinity (radioligand binding, h5-HT1A.CHO cell membranes)
T1 construct: expressed in transfected cells; membranes
T1 sequence (P08908 1-422): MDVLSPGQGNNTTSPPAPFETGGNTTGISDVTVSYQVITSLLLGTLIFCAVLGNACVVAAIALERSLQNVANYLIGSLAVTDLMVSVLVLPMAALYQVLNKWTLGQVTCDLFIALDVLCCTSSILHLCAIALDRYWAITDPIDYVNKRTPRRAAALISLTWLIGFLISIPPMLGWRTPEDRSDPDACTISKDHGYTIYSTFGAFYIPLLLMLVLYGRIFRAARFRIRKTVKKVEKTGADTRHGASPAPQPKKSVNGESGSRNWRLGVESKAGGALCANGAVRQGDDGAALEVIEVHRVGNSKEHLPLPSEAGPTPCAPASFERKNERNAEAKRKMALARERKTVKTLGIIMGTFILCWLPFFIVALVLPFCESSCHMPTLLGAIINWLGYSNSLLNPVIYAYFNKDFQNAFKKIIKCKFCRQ
From the text: The 5-HT1A affinity of compounds of this invention was established in accordance with standard pharmaceutically accepted test procedures with representative compounds as follows:
Cloning of Human 5-HT1A Receptor:
The PCR cloning of the human 5-HT1A receptor subtype from a human genomic library has been described previously (Chanda et al., 1993). A stable Chinese hamster ovary cell line expressing the human 5-HT1A receptor subtype (h5-HT1A.CHO cells) was employed throughout this study. Cells were maintained in DMEM supplemented with 10% fetal calf serum, non-essential amino acids and penicillin/streptomycin.
Cells were grown to 95-100% confluency as a monolayer before membranes were harvested for binding studies. Cells were gently scraped from the culture plates, transferred to centrifuge tubes, and washed twice by centrifugation (2000 rpm for 10 min., 4° C.) in buffer (50 mM Tris; pH 7.5). The resulting pellets were aliquoted and placed at −80° C. On the day of assay, the cells were thawed on ice, and resuspended in buffer. Studies were conducted using [^3H]8-OH-DPAT as the radioligand. The binding assay was performed in 96 well microtiter plates in a final total volume of 250 μL of buffer. Competition experiments were performed by using 7 concentrations of unlabelled drug and a final ligand concentration of 1.5 nM. Non-specific binding was determined in the presence of 10 μM 5-HT. Saturation analysis was conducted by using [^3H]8-OH-DPAT at concentrations ranging from 0.3-30 nM. Following a 30 minute incubation at room temperature, the reaction was terminated by the addition of ice cold buffer and rapid filtration using a M-96 Brandel Cell Harvester (Gaithersburg, Md.) through a GF/B filter presoaked for 30 minutes in 0.5% polyethyleneimine. […]

[1] = target: T2, cloned human 5-HT1A receptors (Homo sapiens, UniProt P08908); test: [35S]-GTPγS binding to assess agonism/antagonism at the 5-HT1A receptor; format: biochemical
T2 construct: expressed in transfected cells; membranes
T2 sequence (P08908 1-422): T1 sequence (P08908 1-422)
Experimental: Assessment of Agonism/Antagonism at the 5-HT1A Receptor Using [^35S]-GTPγS Binding to Cloned Human 5-HT1A Receptors:
The [^35S]-GTPγS binding assay was similar to that used by Lazareno and Birdsall (Br. J. Pharmacol. 1993, 109, 1120). Briefly, 5-HT1A cloned receptor membrane fragments (as used for 5-HT1A receptor binding assays) were stored at −70° C. until needed. When needed, membranes were rapidly thawed, centrifuged at 40,000×g for 10 minutes and resuspended at 4° C. for 10 minutes in assay buffer (25 mM HEPES, 3 mM MgCl2, 100 mM NaCl, 1 mM EDTA, 10 uM GDP, […], pH 8.0). These membranes were then incubated for 30 min at 30° C. with [^35S]GTPgS (1 nM) in the presence of vehicle, test compound (one to eight concentrations), or excess 8-OH-DPAT to define maximum agonist response. All reactions are terminated by the addition of ice cold Tris buffer followed by rapid filtration using a Tom Tech® filtration device to separate bound from free [ ^35S]GTPgS. Agonists produce an increase in the amount of [^35S]GTPgS bound whereas antagonists produce no increase in binding. Bound radioactivity was counted and analyzed as above.

rats = details: delayed nonmatching to sample radial arm maze task; cited from earlier work
[2] = two-platform spatial discrimination task; cited from earlier work
[3] = post-training administration, autoshaping learning task; cited from earlier work
[4] = n=2, membranes of CHO cells expressing human 5-HT1A, read-out: HC 5-HT1A affinity Ki
[5] = n=1, cloned human 5-HT1A receptor membranes
[6] = n=1, cloned human 5-HT1A receptor membranes, read-out: [35S]GTPgS IC50

SMILES | melting point | Ki (human 5-HT1A receptor; [4]) [nM] | [35S]GTPgS Imax [1, 5] [%] | further results
CCOc1cccc2c1O[C@@H](CN1C3CCC1CC(O)(c1ccc4ccccc4c1)C3)CO2 (stereo partly drawn) (as salt: oxalate) [Example 1, (S)-8-(8-Ethoxy-2,3-dihydro-benzo[1,4]dioxin-2-ylmethyl)-3-naphthalen-2-yl-8-aza-bicyclo[3.2.1]octan-3-ol] | 126 to 129 °C |  |  | 
CCOc1cccc2c1O[C@@H](CN1C3CCC1CC(O)(c1ccc4ccccc4c1)C3)CO2 (stereo partly drawn) [Example 1, (S)-8-(8-Ethoxy-2,3-dihydro-benzo[1,4]dioxin-2-ylmethyl)-3-naphthalen-2-yl-8-aza-bicyclo[3.2.1]octan-3-ol] |  | 5.9 |  | 
CCOc1cccc2c1O[C@@H](CN1C3CCC1CC(O)(c1ccccc1)C3)CO2 (stereo partly drawn) [Example 2, (S)-8-(8-Ethoxy-2,3-dihydro-benzo[1,4]dioxin-2-ylmethyl)-3-phenyl-8-aza-bicyclo[3.2.1]octan-3-ol] | 152 to 155 °C | 3.1 |  | 
CCOc1cccc2c1O[C@@H](CN1C3CCC1CC(O)(c1csc4ccccc14)C3)CO2 (stereo partly drawn) [Example 3, (S)-3-Benzo[b]thiophen-3-yl-8-(8-ethoxy-2,3-dihydro-benzo[1,4]dioxin-2-ylmethyl)-8-aza-bicyclo[3.2.1]octan-3-ol] | 111 to 114 °C | 16.7 |  | 
CCOc1cccc2c1O[C@@H](CN1C3CCC1CC(O)(c1ccccn1)C3)CO2 (stereo partly drawn) [Example 4, 8-{[(2S)-8-Ethoxy-2,3-dihydro-benzo[1,4]dioxin-2-yl]methyl)-3-pyridin-2-yl-8-aza-bicyclo[3.2.1]octan-3-ol] | 95 to 99 °C | 61.6 |  | 
CCOc1cccc2c1O[C@@H](CN1C3CCC1CC(O)(c1cccc(C(F)(F)F)c1)C3)CO2 (stereo partly drawn) [Example 5, 8-{[(2S)-8-Ethoxy-2,3-dihydro-benzo[1,4]dioxin-2-yl]methyl)-3-(3-trifluoromethylphenyl)-8-aza-bicyclo[3.2.1]octan-3-ol] | 86 to 90 °C | 2.9 |  | 
COc1ccccc1C1(O)CC2CCC(C1)N2C[C@H]1COc2cccc(OC)c2O1 (stereo partly drawn) [Example 6, 8-{[(2S)-8-Methoxy-2,3-dihydro-1,4-benzodioxin-2-yl]methyl}-3-(2-methoxyphenyl)-8-azabicyclo[3.2.1]octan-3-ol] | 176 to 178 °C | 39 |  | 
COc1cccc2c1O[C@@H](CN1C3CCC1CC(O)(c1cccc(C(F)(F)F)c1)C3)CO2 (stereo partly drawn) [Example 7, 8-{[(2S)-8-Methoxy-2,3-dihydro-1,4-benzodioxin-2-yl]methyl}-3-[3-(trifluoromethyl)phenyl]-8-azabicyclo[3.2.1]octan-3-ol] | 104 to 107 °C | 0.33 |  | 
COc1cccc2c1O[C@@H](CN1C3CCC1CC(O)(c1ccccn1)C3)CO2 (stereo partly drawn) [Example 8, 8-{[(2S)-8-Methoxy-2,3-dihydro-1,4-benzodioxin-2-yl]methyl}-3-(2-pyridinyl)-8-azabicyclo[3.2.1]octan-3-ol] | 107 to 110 °C (dec.) | 46 | 100 | IC50 [1, 6]: 1480 nM
COc1cccc2c1O[C@@H](CN1C3CCC1CC(O)(c1csc4ccccc14)C3)CO2 (stereo partly drawn) [Example 9, 3-(1-Benzothien-3-yl)-8-{[(2S)-8-methoxy-2,3-dihydro-1,4-benzodioxin-2-yl]methyl}-8-azabicyclo[3.2.1]octan-3-ol] | 162 to 164 °C | 1.6 | 100 | IC50 [1, 6]: 36 nM
COc1cccc2c1O[C@@H](CN1C3CCC1CC(O)(c1ccccc1)C3)CO2 (stereo partly drawn) [Example 10, 8-{[(2S)-8-Methoxy-2,3-dihydro-1,4-benzodioxin-2-yl]methyl}-3-phenyl-8-azabicyclo[3.2.1]octan-3-ol] | 113 to 115 °C |  | 100 | Ki (human 5-HT1A receptor): 1.53 nM; IC50 [1]: 25 nM
COc1cccc2c1O[C@@H](CN1C3CCC1CC(O)(c1ccc4ccccc4c1)C3)CO2 (stereo partly drawn) [Example 11] | 129 to 132 °C |  | 100 | Ki (human 5-HT1A receptor): 0.81 nM; IC50 [1]: 9.9 nM
COc1ccccc1N1CCN(CCN(C(=O)C2CCCCC2)c2ccccn2)CC1 [WAY-100635] |  |  |  | effect on cognitive impairment induced by MK801 (rats): significantly reduced the cognitive impairment; effect on impairment of spatial learning caused by intrahippocampal injection of CPP [2]: prevented the impairment of spatial learning; effect on learning deficit induced by scopolamine [3]: reversed the learning deficit
